Where a name gives a salt, the structure may show the parent alone.
System: VCAM-1
Assay: VCAM-1 assay with ELISA readout (Examples 5-6)
Format: cell-based
Conditions: for IC50: TNF added with compound, incubated overnight (approximately 16 hours)
Protocol: Two to four confluent P150 plates are trypsinized and the cells transferred to a 50 mL conical centrifuge tube. The cells are pelleted, resuspended, and counted using the trypan blue exclusion method.
Cells are resuspended at a concentration of 36,000 cells/mL and 1 mL is aliquoted per well.
Cells are split into 24 well tissue culture plates. The cells in each well should be approximately 90-95% confluent by the following day. Cells should not be older than passage 8.
Compounds are initially screened at 50 μM and 10 μM. A 50 mM stock solution for each compound is prepared in culture medium. The stock solution is diluted to 5 mM and 1 mM. When 10 μL of the 5 mM solution is added to the well (1 mL medium/well), the final concentration will be 50 μM. Adding 10 μL of the 1 mM solution to the well will give a final concentration of 10 μM.
Compounds which will not go into solution in culture medium are resuspended in DMSO at a concentration of 25 mM. The stock solution is then diluted to the final concentration in culture medium. The old medium is aspirated and 1 mL of the new medium with the compound is added. For example, if the final concentration is 50 µM, the 2 μL of the 25 mM stock is added per mL of culture medium. The […] solution is diluted for lower concentrations.
The compounds are added to the plate (each compound is done in duplicate). One plate is done for VCAM expression and one plate is done for ICAM expression.
Immediately after the compounds are added, TNF is added to each well. 100 units/mL TNF is usually added to each well. Since each lot of TNF varies in the number of units, each new lot is titrated to determine the optimum concentration. Therefore this concentration will change. If 100 units/mL is being used, dilute the TNF to 10 units/μL and add 10 μL to each well.
The plates are incubated at 37° C., 5% CO2 overnight (approximately 16 hours). The next day the plates are checked under the microscope to see if there are any visual signs of toxicity. Records are made of any cell death, debris, or morphology changes, as well as insoluble compounds (particulate or turbity).
In order to assess MCP-1, the media (500 μL) is saved and frozen at −70° C. Wash cells once with roughly 1 ml/well of Hanks Balance Salt Solution (HBSS) or PBS. Gently empty the wash solution and then tap the plate onto paper towels. Add either 250 μL/well of HBSS+5% FCCS to the plank (no primary antibody wells) or 250 μL/well of primary antibody diluted in HBSS+5% FCS. Incubate for 30 minutes at 37° C. Wash the wells twice with 0.5 mL/well HBSS or PBS and gently tap the plates onto paper towels after the last wash. Add 250 μL/well of HRP-conjugated second antibody diluted in HBSS+5% FCS to every well including the blank wells (no primary antibody). Incubate at 37° C. for 30 minutes. Wash the wells four times with 0.5 mL/well HBSS or PBS and gently tap the plates onto paper towels after the last wash. Add 250 μL/well of substrate solution. Incubate at room temperature in the dark until there is adequate color development (blue). Note the length of time incubation was performed (typically 15-30 minutes). Add 75 μL/well stopper solution (8N sulfuric acid), and read at 450 nm.

IC50 (16 h) | Compound | IC50 | further results
– | CC(C)(Sc1cc(C(C)(C)C)c(O)c(C(C)(C)C)c1)Sc1cc(C(C)(C)C)c(OCC2OC2CO)c(C(C)(C)C)c1 (stereo not shown) [Oxiranemethanol, 3-[[4-[[1-[[3,5-bis(1,1-dimethylethyl)-4-hydroxyphenyl]thio]-1-methylethyl]thio]-2,6-bis(1,1-dimethylethyl)phenoxy]methyl]-] | > 100 µM | –
55 µM | CC(C)(Sc1cc(C(C)(C)C)c(O)c(C(C)(C)C)c1)Sc1cc(C(C)(C)C)c(OC=CCO)c(C(C)(C)C)c1 [Phenol, 4-[[1-[[3,5-bis(1,1-dimethylethyl)-4-[[3-hydroxy-1-propenyl)oxy]phenyl]thio]-1-methylethyl]thio]-2,6-bis(1,1-dimethylethyl)-] | – | –
10 µM | CC(C)(Sc1cc(C(C)(C)C)c(O)c(C(C)(C)C)c1)Sc1cc(C(C)(C)C)c(OC[C@H]2OC(O)[C@H](O)[C@@H](O)[C@@H]2O)c(C(C)(C)C)c1 (stereo partly drawn) [D-Glucopyranose, 6-O-[4-[[1-[[3,5-bis(1,1-dimethylethyl)-4-hydroxyphenyl]thio]-1-methylethyl]thio]-2,6-bis(1,1-dimethylethyl)phenyl]-] | – | –
8.7 µM | CC(C)(Sc1cc(C(C)(C)C)c(O)c(C(C)(C)C)c1)Sc1cc(C(C)(C)C)c(OC(=O)CCCC(=O)O)c(C(C)(C)C)c1 [Pentanedioic acid mono[4-[[1-[[3,5-bis(1,1-dimethylethyl)-4-hydroxyphenyl]thio]-1-methylethyl]thio]-2,6-bis(1,1-dimethylethyl)phenyl] ester] | – | –
– | COc1c(C(C)(C)C)cc(SCc2ccc(C(F)(F)F)cc2)cc1C(C)(C)C [2,6-di-tert-butyl-1-methoxy-4-thio(4′-trifluoromethyl)benzyl)benzene] | > 50 µM | –
75 µM | CC(C)(Sc1cc(C(C)(C)C)c(O)c(C(C)(C)C)c1)Sc1cc(C(C)(C)C)c(OCC(=O)N[C@@H](CCC(=O)O)C(=O)O)c(C(C)(C)C)c1 [Glutamic acid, N-[[4-[[1-[[3,5-bis(1,1-dimethylethyl)-4-hydroxyphenyl]thio]-1-methylethyl]thio]-2,6-bis(1,1-dimethylethyl)phenoxy]acetyl]-] | – | –
– | CC(C)(Sc1cc(C(C)(C)C)c(O)c(C(C)(C)C)c1)Sc1cc(C(C)(C)C)c(OCC(O)C2CO2)c(C(C)(C)C)c1 (stereo not drawn) [Oxiranemethanol, α-[[4-[[1-[[3,5-bis(1,1-dimethylethyl)-4-hydroxyphenyl]thio]-1-methylethyl]thio]-2,6-bis(1,1-dimethylethyl)phenoxy]methyl]-] | 45 µM | –
25 µM | CC(C)(Sc1cc(C(C)(C)C)c(O)c(C(C)(C)C)c1)Sc1cc(C(C)(C)C)c(OC(=O)c2ccc([N+](=O)[O-])o2)c(C(C)(C)C)c1 [2-Furancarboxylic acid, 5-nitro-, 4-[[1-[[3,5-bis(1,1-dimethylethyl)-4-hydroxyphenyl]thio]-1-methylethyl]thio]-2,6-bis(1,1-dimethylethyl)phenyl ester] | – | –
11 µM | CC(C)(Sc1cc(C(C)(C)C)c(O)c(C(C)(C)C)c1)Sc1cc(C(C)(C)C)c(OCCCC(=O)O)c(C(C)(C)C)c1 [Butanoic acid, 4-[4-[[1-[[3,5-bis(1,1-dimethylethyl)-4-hydroxyphenyl]thio]-1-methylethyl]thio]-2,6-bis(1,1-dimethylethyl)phenoxy]-] | – | –
– | Butanedioic acid, mono[4-[[1-[[3,5-bis(1,1-dimethylethyl)-4-methoxyphenyl]thio]1-methylethyl]thio]-2,6-bis(1,1-dimethylethyl)phenyl] ester | > 50 µM | –
– | CC(C)(Sc1cc(C(C)(C)C)c(OC(=O)CN)c(C(C)(C)C)c1)Sc1cc(C(C)(C)C)c(OC(=O)CN)c(C(C)(C)C)c1 [Glycine, (1-methylethylidene)bis[bis[thio-2,6-bis(1,1-dimethylthyl)-4,1-phenylene]]ester, dihydrochloride] | > 50 µM | –
15 µM | CC(C)(Sc1cc(C(C)(C)C)c(O)c(C(C)(C)C)c1)Sc1cc(C(C)(C)C)c(OC[C@@H](O)[C@@H](O)[C@H](O)[C@@H](O)CO)c(C(C)(C)C)c1 [D-Glucitol, 6-O-[4-[[1-[[3,5-bis(1,1-dimethylethyl)-4-hydroxyphenyl]thio]-1-methylethyl]thio]-2,6-bis(1,1-dimethylethyl)phenyl]-] | – | –
– | CN(C)CCCOc1c(C(C)(C)C)cc(SC(C)(C)Sc2cc(C(C)(C)C)c(O)c(C(C)(C)C)c2)cc1C(C)(C)C [Phenol, 4-[[1-[[4-[3-(dimethylamino)propoxy]-3,5-bis(1,1-dimethylethyl)phenyl]thio]-1-methylethyl]thio]-2,6-bis(1,1-dimethylethyl)-] | – | inhibition at 50 µM (at 50 μM): 22%
16 µM | CC(C)(Sc1cc(C(C)(C)C)c(O)c(C(C)(C)C)c1)Sc1cc(C(C)(C)C)c(OCC(O)CNCC(=O)O)c(C(C)(C)C)c1 (stereo not shown) [Glycine, N-[3-[4-[[1-[[3,5-bis(1,1-dimethylethyl)-4-hydroxyphenyl]thio]-1-methylethyl]thio]-2,6-bis(1,1-dimethylethyl)phenoxy]2-hydroxypropyl]-] | – | –
– | CC(C)(C)c1cc(SCCCS(=O)(=O)O)cc(C(C)(C)C)c1O [2,6-di-tert-butyl-4-thio(3′-propanesulfonic acid)phenol] | – | VCAM-1 inhibition at [μM] (at 50 μM): 25% at 50
75 µM | CCOCC(O)COc1c(C(C)(C)C)cc(SC(C)(C)Sc2cc(C(C)(C)C)c(O)c(C(C)(C)C)c2)cc1C(C)(C)C (stereo not shown) [Phenol, 4-[[1-[[3,5-bis(1,1-dimethylethyl)-4-(3-ethoxy-2-hydroxypropoxy)phenyl]thio]-1-methylethyl]thio]-2,6-bis(1,1-dimethylethyl)-] | – | –
– | CN(C)Cc1ccc(CSc2cc(C(C)(C)C)c(O)c(C(C)(C)C)c2)o1 [2,6-di-tert-butyl-4-thio(5′-methyl-2′-((dimethylamino)methyl)furan)phenol] | 10 µM | –
– | Cc1ccc(CSc2cc(C(C)(C)C)c(O)c(C(C)(C)C)c2)cc1 [2,6-di-tert-butyl-4-thio(4′-methylbenzyl)phenol] | 75 µM | –
– | CC(C)(C)c1cc(SCc2ccc(F)cc2)cc(C(C)(C)C)c1O [2,6-di-tert-butyl-4-thio(4′-fluorobenzyl)phenol] | 35 µM | –
– | CN(C)c1ccc(CCOc2c(C(C)(C)C)cc(SC(C)(C)Sc3cc(C(C)(C)C)c(OCCc4ccc(N(C)C)cc4)c(C(C)(C)C)c3)cc2C(C)(C)C)cc1 [Benzenamine, 4,4′-[(1-methylethylidene)bis [thio[2,6-bis(1,1-dimethylethyl)-4,1-phenylene]oxy-2,1-ethanediyl]]bis[N,N-dimethyl-] | > 50 µM | –
– | CC(=O)OC(C)(C)CSc1cc(C(C)(C)C)c(O)c(C(C)(C)C)c1 [2,6-di-tert-butyl-4-thio(2′-acetoxy,2′-methylpropyl)phenol] | 50 µM | –

Compound | IC50 (16 h) | IC50 | further results
CC(C)(Sc1cc(C(C)(C)C)c(O)c(C(C)(C)C)c1)Sc1cc(C(C)(C)C)c(OCCCCN)c(C(C)(C)C)c1 [Phenol, 4-[[1-[[4-(4-aminobutoxy)-3,5-bis(1,1-dimethylethyl)phenyl]thio]-1-methylethyl]thio]2,6-bis(1,1-dimethylethyl)-] | 8 µM | 9 µM | –
CC(C)(Sc1ccc(OCCCCN)cc1)Sc1cc(C(C)(C)C)c(O)c(C(C)(C)C)c1 [Phenol, 4-[[1-[[4-(4-aminobutoxy)phenyl]thio]-1-methylethyl]thio]-2,6-bis(1,1-dimethylethyl)-] | 5 µM | – | –
CC(C)(Sc1cc(C(C)(C)C)c(O)c(C(C)(C)C)c1)Sc1cc(C(C)(C)C)c(OCCCCO)c(C(C)(C)C)c1 [Phenol, 4-[[1-[[3,5-bis(1,1-dimethylethyl)-4-(4-hydroxybutoxy)phenyl]thio]-1-methylethyl]thio]-2,6-bis(1,1-dimethylethyl)-] | 125 µM | – | –
